Experimental data from US10869931B2, “Polyethylene glycol-modified angiogenesis inhibitor HM-1 and application thereof” (NANJING ANJI BIOLOGICAL TECHNOLOGY CO.,LTD, priority 2016, dated 2020).
Marks after values point to notes of the source that are not given here. Where no end group is shown, it is not given here.

Experiments:
[1] = system: Colorectal cancer tumor cells; assay: MTT proliferation inhibition, colorectal cancer cells; type: cell-based, human; parameters: concentration or dose not given beside the values; settings: 48 h
Method in brief: (§1)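 Tumour cells plated at 2×10^4 cells/mL, attached overnight, then exposed to dilutions of mPEG-HM-1 for 48 h at 37 °C, 5% CO2. MTT added 4 h, formazan dissolved in DMSO, absorbance 570/630 nm; growth inhibition = 1 − treated/untreated, three independent repeats, mean±SD.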

[2] = system: carrageenan-induced toe swelling in SD rats; assay: Carrageenan-induced acute toe swelling in rats; type: in vivo, rat; parameters: Swelling: unit not given here
Description: SD rats were divided into blank model group, dexamethasone-positive group (5 mg/kg) and mPEG-HM-1 test group. The drug was administered once a day, and the model group was given the same volume of normal saline for 3 days and fed normally. At the first hour after the last administration, 0.1 mL of 1% carrageenan was injected subcutaneously into the right hind paw of the rats to induce inflammation. The volume of the foot was measured at 1 h, 3 h, 5 h, and 7 h after inflammation. The degree of swelling of the foot was calculated according to the following formula: the degree of swelling of the foot (mL)=the volume of the foot after inflammation−the volume before inflammation. Record the number of milliliters of spilled liquid (method: use the ballpoint pen to circle as the measurement mark at the protruding point of the right joint, and then put the right hind foot of each mouse into the volume measuring device, so that the hind limb is exposed outside the cylinder, and the depth of the immersion was determined by coinciding the circle with the liquid surface. After the foot enters the liquid, the liquid level rises, and the volume of the overflow liquid is the volume of the right hind foot of the rat, and the normal volume of the right hind foot of each mouse is sequentially determined).

[3] = system: adjuvant arthritis (AA) SD rats; assay: Adjuvant arthritis (AA) rat model; type: in vivo; settings: AA SD rats; for Clinical score: maximum score 16
[4] = system: Thyroid cancer tumor cells; assay: MTT proliferation inhibition, thyroid cancer cells; type: cell-based, human; parameters: concentration or dose not given beside the values; settings: 48 h
Method in brief: as §1

[5] = system: Human Umbilical Vein Endothelial Cells (HUVEC); assay: Transwell migration of HUVEC; type: cell-based; settings: 24 h
Method in brief: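 HUVEC (1×10^5/mL in blank medium) seeded with test solutions into Matrigel-coated transwell inserts, lower chamber holding medium with 5% FBS and 1% ECGS, 24 h at 37 °C. Migrated cells crystal-violet stained and counted in four fields; migration inhibition calculated from test versus blank-control counts, three independent repeats.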

[6] = system: retinal neovascular clusters in OIR C57/B16 mice; assay: Retinal blood vessels in OIR mice; type: in vivo, mouse; settings: for Neovascular clusters area: retina evaluated on day 17; for Inhibition rate: neovascular clusters area vs control, day 17
Excerpt: Establishment of the OIR model: Exposure of young mouse and their mothers to 75% hyperoxic environment from day 7 to day 12 after birth of C57/B16 mice caused rapid disappearance of capillaries in the central retina. Upon returning to the indoor air on the 12th day, the retinal blood vessels, upon exposing to hyperoxia, rapidly disappeared, causing extensive abnormal neovascularization, and the central portion of the retina remained largely avascular for a long time. After the blood vessels disappeared completely, on the 13th day, physiological saline (negative control group), mPEG-SC-HM-1, mPEG2-NHS-HM-1, mPEG-ALD10k-HM-1, and mPEG-bALD-HM-1, were administered by intravitreal injection and retinal vessels were evaluated on day 17 (to label unclosed vessels, […] of Texas Red-labeled tomato lectin was injected into the left ventricle and circulated for 5 min).

[7] = system: Bladder Cancer tumor cells; assay: MTT proliferation inhibition, bladder cancer cells; type: cell-based, human; parameters: concentration or dose not given beside the values; settings: 48 h
Method in brief: as §1

Melanoma tumor cells = assay: MTT proliferation inhibition, melanoma cells; type: cell-based, human; parameters: concentration or dose not given beside the values; settings: 48 h
Method in brief: as §1

[8] = system: Pancreatic cancer tumor cells; assay: MTT proliferation inhibition, pancreatic cancer cells; type: cell-based, human; parameters: concentration or dose not given beside the values; settings: 48 h
Method in brief: as §1

[9] = system: Gastric cancer tumor cells; assay: MTT proliferation inhibition, gastric cancer cells; type: cell-based, human; parameters: concentration or dose not given beside the values; settings: 48 h
Method in brief: as §1

[10] = 80 mg/kg subcutaneous once every three days
[11] = 10 mg/kg subcutaneous once every three days

mPEG-ALD40k-Arg-Gly-Ala-Asp-Arg-Ala-Gly-Gly-Gly-Gly-Arg-Gly-Asp ({mPEG‑ALD 40 kDa}-RGADRAGGGGRGD) [mPEG-ALD40k-HM-1]
rate of growth inhibition [1]: 70.92 ± 16.52% | Swelling ([2]; 80 mg/kg once a day for 3 days, 1 h after carrageenan): 0.26 ± 0.14 | Swelling ([2]; 80 mg/kg once a day for 3 days, 3 h after carrageenan): 0.35 ± 0.13 | Swelling ([2]; 80 mg/kg once a day for 3 days, 5 h after carrageenan): 0.43 ± 0.14 | Swelling ([2]; 80 mg/kg once a day for 3 days, 7 h after carrageenan): 0.33 ± 0.17 | Swelling ([2]; 160 mg/kg once a day for 3 days, 1 h after carrageenan): 0.24 ± 0.13 | Swelling ([2]; 160 mg/kg once a day for 3 days, 3 h after carrageenan): 0.34 ± 0.14 | Swelling ([2]; 160 mg/kg once a day for 3 days, 5 h after carrageenan): 0.44 ± 0.15 | Swelling ([2]; 160 mg/kg once a day for 3 days, 7 h after carrageenan): 0.34 ± 0.15 | Joint swelling [3, 10]: 0.73 ± 0.17 mm | Left and right paw swelling [3, 10]: 3.80 ± 0.65 mm | Clinical score [3, 10]: 5.76 ± 1.03 | rate of growth inhibition [4]: 49.03 ± 13.08% | cell migration number (Mean ± SD) ([5]; 90 μg/mL): 534.34 ± 56.62 | inhibition rate of HUVEC migration ([5]; 90 μg/mL): 48.07%* | cell migration number (Mean ± SD) ([5]; 100 μg/mL): 510.47 ± 60.56 | inhibition rate of HUVEC migration ([5]; 100 μg/mL): 50.39% | cell migration number (Mean ± SD) ([5]; 110 μg/mL): 471.88 ± 46.27 | inhibition rate of HUVEC migration ([5]; 110 μg/mL): 54.14% | cell migration number (Mean ± SD) ([5]; 120 μg/mL): 565.31 ± 50.34 | inhibition rate of HUVEC migration ([5]; 120 μg/mL): 45.06%* | Neovascular clusters area ([6]; 200 μg intravitreal injection on day 13): 0.106 ± 0.010 mm^2 | Inhibition rate ([6]; 200 μg intravitreal): 52.02%** | rate of growth inhibition [7]: 43.22 ± 10.31% | rate of growth inhibition (Melanoma tumor cells): 75.18 ± 21.75% | rate of growth inhibition [8]: 65.31 ± 19.81% | rate of growth inhibition [9]: 70.66 ± 18.72%

mPEG-SC5k-Arg-Gly-Ala-Asp-Arg-Ala-Gly-Gly-Gly-Gly-Arg-Gly-Asp ({mPEG‑SC 5 kDa}-RGADRAGGGGRGD) [mPEG-SC5k-HM-1]
rate of growth inhibition [1]: 55.35 ± 12.82% | Swelling ([2]; 10 mg/kg once a day for 3 days, 1 h after carrageenan): 0.24 ± 0.12 | Swelling ([2]; 10 mg/kg once a day for 3 days, 3 h after carrageenan): 0.37 ± 0.14 | Swelling ([2]; 10 mg/kg once a day for 3 days, 5 h after carrageenan): 0.42 ± 0.16 | Swelling ([2]; 10 mg/kg once a day for 3 days, 7 h after carrageenan): 0.32 ± 0.13 | Swelling ([2]; 20 mg/kg once a day for 3 days, 1 h after carrageenan): 0.23 ± 0.10 | Swelling ([2]; 20 mg/kg once a day for 3 days, 3 h after carrageenan): 0.33 ± 0.20 | Swelling ([2]; 20 mg/kg once a day for 3 days, 5 h after carrageenan): 0.38 ± 0.13 | Swelling ([2]; 20 mg/kg once a day for 3 days, 7 h after carrageenan): 0.34 ± 0.15 | Joint swelling [3, 11]: 0.74 ± 0.18 mm | Left and right paw swelling [3, 11]: 3.96 ± 0.71 mm | Clinical score [3, 11]: 5.95 ± 1.07 | rate of growth inhibition [4]: 39.23 ± 13.18% | cell migration number (Mean ± SD) ([5]; 30 μg/mL): 617.03 ± 60.97 | inhibition rate of HUVEC migration ([5]; 30 μg/mL): 41.83%* | cell migration number (Mean ± SD) ([5]; 40 μg/mL): 517.43 ± 50.39 | inhibition rate of HUVEC migration ([5]; 40 μg/mL): 51.22% | cell migration number (Mean ± SD) ([5]; 50 μg/mL): 469.59 ± 48.95 | inhibition rate of HUVEC migration ([5]; 50 μg/mL): 55.73% | cell migration number (Mean ± SD) ([5]; 60 μg/mL): 601.65 ± 60.73 | inhibition rate of HUVEC migration ([5]; 60 μg/mL): 43.28%* | Neovascular clusters area ([6]; 25 μg intravitreal injection on day 13): 0.116 ± 0.012 mm^2 | Inhibition rate ([6]; 25 μg intravitreal): 47.42%* | rate of growth inhibition [7]: 35.72 ± 11.52% | rate of growth inhibition (Melanoma tumor cells): 61.27 ± 18.13% | rate of growth inhibition [8]: 51.37 ± 16.23% | rate of growth inhibition [9]: 52.12 ± 13.22%
